Consider two molecules from publication PMC7096246 (Journal of pharmaceutical sciences, 2020).

A short description of data set [1]: Saturation solubility in 50% FBS/PBS. Type of data set: physicochemical.
The conditions of data set [2]: cited from earlier work.
A short description of data set [3]: Water solubility measured in the current study. Type of data set: physicochemical.
The conditions of data set [4]: ref DrugBank database, DB01229 and DB08889; cited from earlier work.

Converted amounts (≈) assume the structure as drawn.

What is called solubility is the dissolved amount per volume that the medium holds. Read a low solubility as little dissolved substance. With `CC(C)C[C@H](NC(=O)[C@H](CCc1ccccc1)NC(=O)CN1CCOCC1)C(=O)N[C@@H](Cc1ccccc1)C(=O)N[C@@H](CC(C)C)C(=O)[C@@]1(C)CO1` [CFZ, carfilzomib], the solubility at 24 h in data set [1] was determined as 9.3 ± 0.2 µg/mL (≈ 12.9 µM); in data set [3] it was 1.3 ± 0.2 µg/mL (≈ 1.81 µM). Also, in data set [2], the plasma protein binding is on record as 98%. Further, the “water solubility as reported in DrugBank” value in data set [4] is 4.8 µg/mL (≈ 6.67 µM).

As for `CC(=O)O[C@H]1C(=O)[C@@]2(C)[C@H]([C@H](OC(=O)c3ccccc3)[C@]3(O)C[C@H](OC(=O)[C@H](O)[C@@H](NC(=O)c4ccccc4)c4ccccc4)C(C)=C1C3(C)C)[C@]1(OC(C)=O)CO[C@@H]1C[C@@H]2O` [PTX, paclitaxel], the plasma protein binding in data set [2] is 88-98%.
